Values of other authors, collected in US6436417B1, “Acne treatment compositions” (Blistex Inc., priority 2001, dated 2002).

Key:
[1] = not given; remark: listed apart in the source
[2] = in sunlight and in the presence of ferric salts

O=C(O)c1ccccc1O [Salicylic acid, salicylic acid]
pH of the aqueous solution (1 gram in about 460 ml of water at room temperature): 2.4 | solubility in water (volume of water dissolving 1 gram) (1 gram, water, room temperature): about 460 ml | solubility in water (water, room temperature): about 0.2 % by weight | solubility in alcohol (volume of alcohol dissolving 1 gram) [1]: about 2.7 ml | stability to discoloration [2]: strong tendency to discolor
